# Patent US20190194179A1, “ANTIBIOTIC COMPOUNDS” (DISCUVA LTD., priority 2016, published 2019)
# Test system: Neisseria gonorrhoeae
# Test: EC50 determination: plate-based broth growth assay (absorbance at 600 nm) of Neisseria gonorrhoeae
# Assay type: cell-based
# Details: absorbance 600 nm after 20 hours at 37° C./5% CO2, read-out: IC50 (Inhibitory concentration) against Neisseria gonorrhoeae
# How it was run: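 Mid-log culture diluted to ~10^5 cells/ml as inoculum and grown 20 hours at 37° C./5% CO2 across a 10-point compound dilution series. Growth read as absorbance at 600 nm; EC50 taken from transformed data as the concentration giving 50% response relative to no-compound controls.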
row,SMILES,IC50
1,"CC(C)(C)OC(=O)N1CCN(c2nnc(Nc3nc4cc(C(F)(F)F)ccc4o3)o2)CC1 [Example 148, tert-butyl 4-(5-((5-(trifluoromethyl)benzo[d]oxazol-2-yl)amino)-1,3,4-oxadiazol-2-yl)piperazine-1-carboxylate]",≤ 100 µM
2,"Clc1ccc2nc(Nc3nncs3)oc2c1 [Example 151, 6-Chloro-N-(1,3,4-thiadiazol-2-yl)benzo[d]oxazol-2-amine]",≤ 1 µM
3,"Clc1cc2nc(Nc3nnco3)oc2cc1Cl [Example 152, 5,6-Dichloro-N-(1,3,4-oxadiazol-2-yl)benzo[d]oxazol-2-amine]",≤ 0.1 µM
4,"Cc1nnc(Nc2nc3c(C)nccc3o2)o1 [Example 154, 4-Methyl-N-(5-methyl-1,3,4-oxadiazol-2-yl)oxazolo[4,5-c]pyridin-2-amine]",≤ 10 µM
5,"CN1CCc2nc(Nc3nc4cc(C(F)(F)F)ccc4o3)oc2C1 [Example 155, 5-Methyl-N-(5-(trifluoromethyl)benzo[d]oxazol-2-yl)-4,5,6,7-tetrahydrooxazolo[5,4-c]pyridin-2-amine]",≤ 1 µM
6,"CN1CCc2oc(Nc3nc4cc(C(F)(F)F)ccc4o3)nc2C1 [Example 156, 5-Methyl-N-(5-(trifluoromethyl)benzo[d]oxazol-2-yl)-4,5,6,7-tetrahydrooxazolo[4,5-c]pyridin-2-amine]",≤ 1 µM
7,"FC(F)(F)c1cc2oc(Nc3nc4cnccc4o3)nc2cn1 [Example 161, N-(Oxazolo[4,5-c]pyridin-2-yl)-6-(trifluoromethyl)oxazolo[4,5-c]pyridin-2-amine]",≤ 100 µM
8,"Cc1cc(Nc2nc3ccc(Cl)cc3o2)no1 [Example 172, 6-Chloro-N-(5-methylisoxazol-3-yl)benzo[d]oxazol-2-amine]",≤ 1 µM
9,"Clc1ccc2oc(Nc3cscn3)nc2c1 [Example 173, 5-Chloro-N-(thiazol-4-yl)benzo[d]oxazol-2-amine]",≤ 10 µM
10,"Fc1cc2nc(Nc3nnco3)oc2cc1OC(F)(F)F [Example 174, 5-Fluoro-N-(1,3,4-oxadiazol-2-yl)-6-(trifluoromethoxy)benzo[d]oxazol-2-amine]",≤ 0.1 µM
11,"Clc1ccc2nc(Nc3nnc(C4CC4)o3)oc2c1 [Example 175, 6-Chloro-N-(5-cyclopropyl-1,3,4-oxadiazol-2-yl)benzo[d]ox-azol-2-amine]",≤ 0.1 µM
12,"Fc1cc(Cl)cc2oc(Nc3nnco3)nc12 [Example 176, 6-Chloro-4-fluoro-N-(1,3,4-oxadiazol-2-yl)benzo[d]ox-azol-2-amine]",≤ 1 µM
13,"Oc1ccc2nc(Nc3nnco3)oc2c1 [Example 177, 2-((1,3,4-Oxadiazol-2-yl)amino)ben-zo[d]oxazol-6-ol]",≤ 10 µM
14,"COC(=O)c1ccc2nc(Nc3nnco3)oc2c1 [Example 178, Methyl 2-((1,3,4-oxadiazol-2-yl)amino)ben-zo[d]oxazole-6-carboxylate]",≤ 1 µM
15,"Brc1ccc2nc(Nc3nnco3)oc2c1 [Example 179, 6-Bromo-N-(1,3,4-oxadiazol-2-yl)benzo[d]ox-azol-2-amine]",≤ 0.1 µM
16,"c1nnc(Nc2nc3ccc(C4CC4)cc3o2)o1 [Example 180, 6-Cyclopropyl-N-(1,3,4-oxadiazol-2-yl)benzo[d]ox-azol-2-amine]",≤ 1 µM
17,"OCc1ccc2nc(Nc3nnco3)oc2c1 [Example 181, (2-((1,3,4-Oxadiazol-2-yl)amino)ben-zo[d]oxazol-6-yl)methanol]",≤ 10 µM
18,"O=C(O)c1nc(Nc2nc3ccc(Cl)cc3o2)co1 [Example 182, 4-((6-chlorobenzo [d]oxazol-2-yl)amino)oxa-zole-2-carboxylic acid]",≤ 100 µM
19,"c1nnc(Nc2nc3ccc(N4CCCC4)cc3o2)o1 [Example 183, N-(1,3,4-oxadiazol-2-yl)-6-(pyrrolidin-1-yl)benzo[d]ox-azol-2-amine]",≤ 1 µM
20,"c1nnc(Nc2nc3ccc(N4CCCCC4)cc3o2)o1 [Example 184, N-(1,3,4-Oxadiazol-2-yl)-6-(piperidin-1-yl)benzo[d]ox-azol-2-amine]",≤ 1 µM
21,"c1nnc(Nc2nc3ccc(N4CCOCC4)cc3o2)o1 [Example 185, 6-Morpholino-N-(1,3,4-oxadiazol-2-yl)benzo[d]ox-azol-2-amine]",≤ 10 µM
22,"O=[N+]([O-])c1ccc2nc(Nc3nnco3)oc2c1 [Example 186, 6-Nitro-N-(1,3,4-oxadiazol-2-yl)benzo[d]ox-azol-2-amine]",≤ 10 µM
23,"Cc1cc2oc(Nc3nnco3)nc2cc1Cl [Example 187, 5-Chloro-6-methyl-N-(1,3,4-oxadiazol-2-yl)benzo[d]ox-azol-2-amine]",≤ 0.1 µM
24,"Cc1cc2nc(Nc3nnco3)oc2cc1Cl [Example 188, 6-Chloro-5-methyl-N-(1,3,4-oxadiazol-2-yl)benzo[d]ox-azol-2-amine]",≤ 0.1 µM

# Other lines, results leading:
row,IC50,SMILES
1,≤ 0.1 µM,"FC(F)(F)c1cc2oc(Nc3nnco3)nc2cc1Cl [Example 149, 5-Chloro-N-(1,3,4-oxadiazol-2-yl)-6-(trifluoromethyl)benzo[d]oxazol-2-amine]"
2,≤ 1 µM,"Clc1ccc2nc(Nc3nnc[nH]3)oc2c1 [Example 150, 6-Chloro-N-(4H-1,2,4-triazol-3-yl)benzo[d]oxazol-2-amine]"
3,≤ 10 µM,"Cc1nnc(Nc2nc3cc(C(F)(F)F)c(Cl)cc3[nH]2)[nH]1 [Example 153, 6-Chloro-N-(5-methyl-4H-1,2,4-triazol-3-yl)-5-(trifluoromethyl)-1H-benzo[d]imidazol-2-amine]"
4,≤ 0.1 µM,"FC(F)(F)c1ccc2oc(Nc3nc4ccccc4o3)nc2c1 [Example 158, N-(Benzo[d]oxazol-2-yl)-5-(trifluoromethyl) benzo[d]oxazol-2-amine]"
5,≤ 100 µM,"Fc1ccc2oc(Nc3nc4cnccc4o3)nc2c1 [Example 160, N-(5-Fluorobenzo[d]oxazol-2-yl)oxazolo[4,5-c]pyridin-2-amine]"
6,≤ 0.1 µM,"Clc1ccc2oc(Nc3nc4ccccc4o3)nc2c1 [Example 162, N-(Benzo[d]oxazol-2-yl)-5-chlorobenzo[d] oxazol-2-amine]"
7,≤ 0.1 µM,"FC(F)(F)c1cc2oc(Nc3nc4ccccc4o3)nc2cn1 [Example 163, N-(Benzo[d]oxazol-2-yl)-6-(trifluoromethyl) oxazolo[4,5-c]pyridin-2-amine]"
8,≤ 0.1 µM,"Clc1ccc2oc(Nc3nc4cnccc4o3)nc2c1 [Example 164, N-(5-Chlorobenzo[d]oxazol-2-yl)oxazolo[4,5-c]pyridin-2-amine]"
9,≤ 1 µM,"FC(F)(F)c1cc2oc(Nc3nc4ccccc4[nH]3)nc2cn1 [Example 166, N-(1H-Benzo[d]imidazol-2-yl)-6-(trifluoromethyl) oxazolo[4,5-c]pyridin-2-amine]"
10,≤ 1 µM,"FC(F)(F)c1ccc2oc(Nc3nc4ccccc4[nH]3)nc2c1 [Example 167, N-(1H-Benzo[d]imidazol-2-yl)-5-(trifluoromethyl) benzo[d]oxazol-2-amine]"
11,≤ 1 µM,"Clc1ccc2[nH]c(Nc3nc4cnccc4o3)nc2c1 [Example 168, N-(5-Chloro-1H-benzo[d]imidazol-2-yl)oxazolo [4,5-c]pyridin-2-amine]"
12,≤ 100 µM,"CN(c1nc2ccccc2o1)c1nc2cnc(C(F)(F)F)cc2o1 [Example 169, N-(benzo[d]oxazol-2-yl)-N-methyl-6-(trifluoromethyl)oxazolo[4,5-c]pyridin-2-amine]"
13,≤ 1 µM,"Cc1nccc2oc(Nc3nc4ccccc4o3)nc12 [Example 171, N-(Benzo[d]oxazol-2-yl)-4-methyloxazolo[4,5-c]pyridin-2-amine]"
